Source: paper PMC7370187, “Screening of an Epigenetic Drug Library Identifies 4-((hydroxyamino)carbonyl)-N-(2-hydroxyethyl)-N-Phenyl-Benzeneacetamide that Reduces Melanin Synthesis by Inhibiting Tyrosinase Activity Independently of Epigenetic Mechanisms” (International Journal of Molecular Sciences, 2020)
“Also recorded” adds a separate entry of the source.

Columns and labels:
[1] = tested on: cellular melanin production; design: method as in earlier work; conditions: ref [55] Baek et al.; cited from earlier work
[2] = tested on: mushroom TYR; design: method as in earlier work; conditions: ref [55] Baek et al.; read-out: IC50, catalytic activity of mushroom TYR in vitro; cited from earlier work
[3] = target: T1, human TYR (Homo sapiens, UniProt P14679); assay: In vitro TYR catalytic activity assay, lysate of HEK293-TYR cells; format: biochemical; conditions: each drug at 1.0 μM, library screening
T1 construct: expressed in transfected cells; Triton X-100 lysate supernatant
T1 sequence (P14679 19-529): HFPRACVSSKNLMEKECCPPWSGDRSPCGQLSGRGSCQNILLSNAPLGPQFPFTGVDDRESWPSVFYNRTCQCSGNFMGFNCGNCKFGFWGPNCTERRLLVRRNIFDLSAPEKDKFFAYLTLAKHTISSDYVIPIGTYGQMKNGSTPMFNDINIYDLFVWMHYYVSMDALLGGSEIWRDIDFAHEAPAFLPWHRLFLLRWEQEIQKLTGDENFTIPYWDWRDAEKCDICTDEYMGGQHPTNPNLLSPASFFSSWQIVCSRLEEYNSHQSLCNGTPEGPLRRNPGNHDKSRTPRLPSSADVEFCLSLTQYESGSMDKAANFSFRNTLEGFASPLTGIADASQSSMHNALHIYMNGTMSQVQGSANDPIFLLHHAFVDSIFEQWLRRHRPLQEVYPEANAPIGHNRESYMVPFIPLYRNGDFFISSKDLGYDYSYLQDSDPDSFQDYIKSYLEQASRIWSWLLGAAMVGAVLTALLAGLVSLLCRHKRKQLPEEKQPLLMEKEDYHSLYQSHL
Experimental: (§1) To examine the direct effect of a drug on the catalytic activity of TYR, in vitro experiments were undertaken. Lysate of B16F10 cells stimulated with α-MSH for 24 h was used as a murine TYR preparation. Human TYR preparation was the lysate of human embryonic kidney 293 cells constitutively expressing human TYR (HEK293-TYR). […] The TYR activity assay mixture (200 μL) consisted of 100 mM sodium phosphate buffer (pH 6.8), TYR preparation (40 μg protein), a drug at various concentrations, 1.0 mM L-tyrosine, and 42 μΜ L-DOPA. For enzyme kinetic study, the concentrations of L-tyrosine plus L-DOPA were varied while their relative ratio was kept the same as the standard assay condition. […] The reactions were also performed in the absence of a TYR preparation to correct for the effects of non-enzymatic reactions. Enzyme activity was calculated as follows: activity (% control) = (C−D)/(A−B) × 100, where A and B are the absorbance changes of the control group with and without enzyme, respectively, while C and D are the absorbance changes of the test group with and without enzyme, respectively.

[4] = tested on: B16-F10 murine melanoma cells; assay: Screening assay for overall melanin synthesis (OD 400 nm) in α-MSH-stimulated cells; format: cell-based; conditions: 100 nM α-MSH, 72 h; for relative melanin synthesis (OD 400 nm): drug 1.0 μM
Experimental: For the screening assay, B16-F10 cells were plated in 96-well plates (3 × 10^3 cells per well) and cultured for 24 h. The cells were then treated with a test drug at 1.0 μM for 60 min, and subsequently stimulated with 0.1 μM α-MSH for 72 h. Overall melanin synthesis was estimated by measuring the absorbance of each well (cells plus medium, without cell lysis) at 400 nm using a Spectrostar Nano microplate reader (BMG LABTECH GmbH, Ortenberg, Germany).

[5] = tested on: B16-F10 cells; assay: Cell viability assay (MTT); format: cell-based, murine; conditions: 48 h; for relative viability: drug 1.0 μM
Experimental: Cell viability was evaluated using 3-(4,5-dimethylthiazol-2-yl)-2,5-diphenyltetrazolium bromide (MTT). After treatment of B16-F10 cells with each drug for 48 h, cells were washed with phosphate-buffered saline (PBS) and incubated for 2 h in the culture medium containing 1 mg∙mL^−1 MTT (Amresco, Solon, OH, USA). The medium was discarded by aspiration, the formazan dye deposited inside the cells was extracted with isopropanol, and absorbance was measured at 595 nm using a Spectrostar Nano microplate reader.

[6] = Copper chelating activity assay (pyrocatechol violet); format: physicochemical; conditions: 200 μM test compound, 200 μM copper ions, 200 μM pyrocatechol violet, absorbance 632 nm
Experimental: Copper chelating activity was determined by using pyrocatechol violet (Sigma-Aldrich). […] The reaction mixture containing a potential chelator at varied concentrations, 200 μM CuSO4, and 200 μM pyrocatechol violet was incubated at 25 °C for 20 min, and its absorption spectra were recorded using a Shimadzu UV-1650PC spectrophotometer (Shimadzu Corporation, Kyoto, Japan). Copper chelating activity was evaluated by the change in the absorbance of pyrocatechol violet at 632 nm.

[7] = target: T1, human TYR; design: method as in PMID 31382682, PMID 23476698, PMID 26914711; conditions: HEK293-TYR; ref [43],[45],[47]; cited from earlier work
[8] = target: T2, murine TYR (Mus musculus, UniProt P11344); assay: In vitro TYR catalytic activity assay, lysate of α-MSH-stimulated B16F10 cells; format: biochemical; conditions: murine TYR, varying substrate concentrations
T2 construct: One is the protein extract of B16F10 cells stimulated by α-MSH and thus expresses a high amount of TYR; endogenous in cells; host or cells: B16F10 murine melanoma cells stimulated with α-MSH for 24 h; Triton X-100 lysate supernatant
T2 sequence (P11344 19-533): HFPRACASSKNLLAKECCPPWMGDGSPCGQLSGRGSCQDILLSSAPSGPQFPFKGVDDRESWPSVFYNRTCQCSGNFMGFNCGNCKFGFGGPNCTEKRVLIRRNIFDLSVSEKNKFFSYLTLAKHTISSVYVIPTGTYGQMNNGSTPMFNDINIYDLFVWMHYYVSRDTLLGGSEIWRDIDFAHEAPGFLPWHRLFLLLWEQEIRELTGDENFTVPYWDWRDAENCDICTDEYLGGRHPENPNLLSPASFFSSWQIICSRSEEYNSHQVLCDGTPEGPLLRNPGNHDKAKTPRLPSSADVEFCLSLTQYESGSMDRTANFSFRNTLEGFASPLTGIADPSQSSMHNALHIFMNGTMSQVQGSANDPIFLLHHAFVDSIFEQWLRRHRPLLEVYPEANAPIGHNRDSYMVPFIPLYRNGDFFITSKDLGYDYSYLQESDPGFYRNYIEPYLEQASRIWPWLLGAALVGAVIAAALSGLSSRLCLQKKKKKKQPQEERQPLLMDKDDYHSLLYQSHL
Experimental: as §1

[9] = tested on: TYR; assay: In vitro TYR catalytic activity, murine and human TYR given together (abstract); format: biochemical; conditions: range over human and murine TYR preparations
Experimental: as §1

Compound: O=C(NO)c1ccc(NC(=O)C23CC4CC(CC(C4)C2)C3)cc1 [1a, 4-(Adamantanecarboxamido)-N-hydroxybenzamide]
- IC50 [1]: 3.78 µM
- IC50 [2]: 12 µM

Compound: O=C(NO)c1ccc(C(=O)NC23CC4CC(CC(C4)C2)C3)cc1 [1b, N1-Adamantyl-N4-hydroxyterephthal amide]
- IC50 [1]: 7.46 µM
- IC50 [2]: 8.99 µM

Compound: COc1ccc(Cn2ccc3ccc(C(=O)NO)cc32)cc1 [A5, N-Hydroxy-1-((4-methoxyphenyl)methyl)-1H-indole-6-carboxamide]
- human TYR inhibitory effect [3]: potent TYR inhibitory effects; also recorded: showed excellent inhibitory action
- relative melanin synthesis (OD 400 nm) [4]: showed no melanin inhibitory action

Compound: COc1cc2c(NC3CCN(C(C)C)CC3)nc(C3CCCCC3)nc2cc1OCCCN1CCCC1 [C3, UNC0638]
- relative viability [5]: showed strong cytotoxicity

Compound: CCN(CC)Cc1ccc2cc(COC(=O)Nc3ccc(C(=O)NO)cc3)ccc2c1.Cl.O [C10, (6-((diethylamino)methyl)naphthalen-2-yl)methyl (4-(hydroxycarbamoyl)phenyl)carbamate hydrochloride hydrate]
- human TYR inhibitory effect [3]: potent TYR inhibitory effects; also recorded: showed excellent inhibitory action

Compound: O=C(C=Cc1cccc(C(=O)NO)c1)NO [H4, N-hydroxy-3-(3-(hydroxyamino)-3-oxo-1-propen-1-yl)-benzamide]
- relative viability [5]: without reducing cell viability
- cytotoxicity (relative viability) ([5]; drug at various concentrations): showed toxicity at 3 μM and higher concentrations
- human TYR inhibitory effect [3]: potent TYR inhibitory effects
- relative melanin synthesis (OD 400 nm) [4]: markedly inhibited cellular melanin synthesis
- melanin synthesis (OD 400) ([4]; drug at varied concentrations): attenuated by both drugs in a dose-dependent manner

Compound: Cn1c(C=CC(=O)NO)ccc1C=CC(=O)c1cccc(F)c1 [M3, 3-(5-(3-(3-Fluorophenyl)-3-oxopropen-1-yl)-1-methyl-1H-pyrrol-2-yl)-N-hydroxy-2-propenamide]
- human TYR inhibitory effect [3]: potent TYR inhibitory effects; also recorded: showed excellent inhibitory action
- relative melanin synthesis (OD 400 nm) [4]: showed no melanin inhibitory action

Compound: O=c1cc(CO)occ1O [kojic acid]
- IC50 [1]: 2000 µM
- copper ions chelated [6]: 36%

Compound: O=c1cc(-c2ccc(O)c(O)c2)oc2cc(OS(=O)(=O)O)cc(O)c12 [luteolin 7-sulfate]
- IC50 [7]: 8.2 µM

Compound: O=C(O)/C=C/c1ccc(O)cc1 [p-coumaric acid]
- IC50 [7]: 4 µM

Compound: OC[C@H]1O[C@@H](Oc2ccc(O)cc2)[C@H](O)[C@@H](O)[C@@H]1O [β-arbutin, 4-hydroxyphenyl-β-D-glucopyranoside]
- inhibition type (Lineweaver–Burk plots) [8]: competitive inhibition
- IC50 [9]: 500 to 700 µM
- copper ions chelated [6]: did not show copper chelating activity
